Assay results as given in patent US8642765B2, “Azaindole-indole coupled derivatives, preparation methods and uses thereof” (priority 2007, dated 2014).
pIC50: −log10 of the molar value.

What was measured:
[1] = system: DU145 tumor cells; assay: MTT growth inhibition of DU145 cells, 72 h; format: cell-based, human; conditions: for pIC50 / IC90: DU145, 72 h, MTT
Method: DU145 cells were inoculated in RPM11640 medium containing 10% calf serum, incubated at 37° C., 5% CO2 in CO2 incubator, and passaged every 2-3 days. In this experiment, cells were grown in logarithmic growth phase.
In the experiment, the cells at logarithmic growth phase were formulated into suspension, and the viability by trypan blue staining was more than 98%. The suspension was divided into several groups: 1 as blank control group (cell suspension); and 2 as experimental groups (cell suspension plus drugs).
(§1) The drugs were formulated into a stock solution in DMSO, and the concentration of the stock solution was 20 mmol (used within 4 hours). In the experiment, the work solution of the drugs was diluted with RPM11640 medium containing 10% calf serum under aseptic condition, to a final concentration of 80 μM. The drug concentrations were increased by 2 times (1.25-20 μM).
(§2) The DU145 cell in logarithmic growth phase were selected, centrifuged, counted, and formulated into a cell suspension (2.5×10^4/ml) with RPM11640 medium containing 10% calf serum. The cell suspension were inoculated into 96-well plates at a density of 5000 cells/200 μl per well, incubated for 24 hours at 37° C., 5% CO2. According to the above concentration of the drug, the cells were inoculated to 6 groups (including one control group), with 8 wells per group. After incubating for 72 hours, the viability of cells was measured by MTT assay. The absorbance value (A) was measured with detection wavelength at 540 nm, reference wavelength at 630 nm. The inhibitory rate (I) was calculated by the following equation, where T was the absorbance value of the experimental groups, and C was the absorbance value of the blank control group: I=(1−T/C)×100%
(§3) The regression equation was calculated by the concentration-inhibitory rate curve, to obtain 50% and 90% inhibition concentration (IC50 and IC90, μM).

[2] = system: human lung adenocarcinoma cell line A549; assay: MTT growth inhibition of A549 cells; format: cell-based; conditions: read-out: IC50 (μM) Tumor cells A549
Method: as §1, §2, §3
(§4) 1. Tumor Cells: human hepatoma cell lines 7701 QGY and HepG-2, human lung adenocarcinoma cell line A549, human chronic myelocytic leukemia cell line K562, human leukemia cell line CEM and mouse melanoma cell line K111.
(§5) 2. Using the methods described in example 2, the biological activity of a portion of newly synthesized 5- or 7-azaindirubin derivatives and 5- or 7-azaisoindigo derivatives (20 compounds) for inhibiting various tumor cells growth were determined.

[3] = system: mouse melanoma cell line K111; assay: MTT growth inhibition of K111 cells; format: cell-based; conditions: Klll, read-out: IC50 (μM) Tumor cells Klll
Method: as §1, §2, §3, §4, §5

[4] = system: human leukemia cell line CEM; assay: MTT growth inhibition of CEM cells; format: cell-based; conditions: read-out: IC50 (μM) Tumor cells CEM
Method: as §1, §2, §3, §4, §5

[5] = system: human hepatoma cell line 7701 QGY; assay: MTT growth inhibition of 7701 QGY cells; format: cell-based; conditions: read-out: IC50 (μM) Tumor cells 7701 QGY
Method: as §1, §2, §3, §4, §5

[6] = system: human hepatoma cell line HepG-2; assay: MTT growth inhibition of HepG-2 cells; format: cell-based; conditions: HepG-2, MTT; read-out: IC50 (μM) Tumor cells HepG-2
Method: as §1, §2, §3, §4, §5

[7] = system: human chronic myelocytic leukemia cell line K562; assay: MTT growth inhibition of K562 cells; format: cell-based; conditions: read-out: IC50 (μM) Tumor cells K562
Method: as §1, §2, §3, §4, §5

[8] = Homo sapiens, DU-145, 72 h, Table 5
[9] = Homo sapiens, DU-145, 72 h, Table 6

Row | SMILES | pIC50 ([1]; Table 5) | IC90 ([1]; Table 5) | pIC50 ([1]; Table 6) | IC90 ([1]; Table 6) | further results
1 | CC(C)N1C(=O)C(=C2Nc3ccccc3C2=O)c2cnccc21 [Compound 7] | < 4.00 |  |  |  | 
2 | CCCCN1C(=O)C(=C2Nc3ccccc3C2=O)c2cnccc21 [Compound 8] | 4.94 | 39 µM |  |  | 
3 | O=C1C(=C2C(=O)N(Cc3ccccc3)c3ccncc32)Nc2ccccc21 [Compound 9] | 4.92 | 85 µM |  |  | 
4 | CCN1C(=O)C(=C2Nc3ccc(Br)cc3C2=O)c2cnccc21 [Compound 12] | 5.06 | 28 µM |  |  | 
5 | CC(C)N1C(=O)C(=C2Nc3ccc(Cl)cc3C2=O)c2cnccc21 [Compound 15] | 5.05 | 48 µM |  |  | 
6 | CN1C(=O)C(=C2Nc3ccc(Cl)cc3C2=NO)c2cnccc21 [Compound 25] | 5.77 | 12.2 µM |  |  | growth inhibitory effects on tumor cells (in words) ([1]; discussion of the MTT assay, DU145): relatively significant growth inhibitory effects
7 | CCN1C(=O)C(=C2Nc3ccc(Br)cc3C2=NO)c2cnccc21 [Compound 28] | 5.35 | 14 µM |  |  | 
8 | CCN1C(=O)C(=C2Nc3ccc(Cl)cc3C2=NO)c2cnccc21 [Compound 29] | 5.66 | 6.8 µM |  |  | 
9 | CC(C)N1C(=O)C(=C2Nc3ccc(Cl)cc3C2=NO)c2cnccc21 [Compound 31] | 5.43 | 11.5 µM |  |  | 
10 | O=C1C(=C2Nc3ccc(Cl)cc3C2=NO)c2cnccc2N1Cc1ccccc1 [Compound 35] | 5.14 | 20 µM |  |  | 
11 | CCN1C(=O)C(=C2Nc3ccccc3C2=NO)c2cnccc21 [Compound 38] | 5.19 | 22 µM |  |  | 
12 | CN1C(=O)C(=C2C(=O)Nc3ccc(F)cc32)c2cnccc21 [Compound 63] | 4.32 | > 100 µM |  |  | 
13 | CC(=O)OCC1OC(N2C(=O)C(=C3C(=O)Nc4ccccc43)c3cnccc32)C(OC(C)=O)C1OC(C)=O (centres unmarked) [Compound 67] | 5.10 | 44 µM |  |  | 
14 | CCN1C(=O)C(=C2C(=O)Nc3ccc(F)cc32)c2cnccc21 [Compound 71] | 4.77 | 87 µM |  |  | 
15 | CC(C)N1C(=O)C(=C2C(=O)Nc3ccc(Cl)cc32)c2cnccc21 [Compound 75] | 5.01 | 29 µM |  |  | 
16 | CCCCN1C(=O)C(=C2C(=O)Nc3ccccc32)c2cnccc21 [Compound 78] | 4.80 | 51 µM |  |  | 
17 | CCCCN1C(=O)C(=C2C(=O)Nc3ccc(Br)cc32)c2cnccc21 [Compound 79] | 4.84 | 77 µM |  |  | 
18 | CCCCN1C(=O)C(=C2C(=O)Nc3ccc(F)cc32)c2cnccc21 [Compound 82] | < 4.00 | > 100 µM |  |  | 
19 | CCN1C(=O)/C(=C2\Nc3ccccc3C2=O)c2ccccc21 [Compound 90, 1-ethyl-indirubin, reference compound] |  |  |  |  | pIC50 [1, 8]: 5.14; IC90 [1, 8]: 31 µM; pIC50 [1, 9]: 5.15; IC90 [1, 9]: 30 µM
20 | COc1ccc2c(c1)C(=O)C(=C1C(=O)N(C)c3ncc(C)cc31)N2 [Compound 95] |  |  | 3.40 | > 100 µM | IC50 [2]: 35.2 µM; IC50 [3]: 15.6 µM; IC50 [4]: 9 µM; IC50 [5]: 23.9 µM; IC50 [6]: 50.1 µM; IC50 [7]: 8.1 µM
21 | CC(C)N1C(=O)C(=C2Nc3ccccc3C2=O)c2cccnc21 [Compound 98] |  |  | < 4.00 |  | 

Row | SMILES | pIC50 ([1]; Table 5) | IC90 ([1]; Table 5) | pIC50 ([1]; Table 6) | IC90 ([1]; Table 6) | further results
22 | CCCCN1C(=O)C(=C2Nc3ccccc3C2=O)c2cccnc21 [Compound 99] |  |  | 4.94 | 87 µM | IC50 [2]: 18.4 µM; IC50 [3]: 10.1 µM; IC50 [4]: 7.1 µM; IC50 [5]: 12.4 µM; IC50 [6]: 29.3 µM; IC50 [7]: 6.7 µM
23 | O=C1C(=C2C(=O)N(Cc3ccccc3)c3ncccc32)Nc2ccccc21 [Compound 100] |  |  | 5.02 | 31.5 µM | 
24 | CN1C(=O)C(=C2Nc3ccc(Br)cc3C2=O)c2cccnc21 [Compound 101] |  |  | 4.94 | 60 µM | IC50 [2]: 21.6 µM; IC50 [3]: 23 µM; IC50 [4]: 12 µM; IC50 [5]: 15 µM; IC50 [6]: 28.8 µM; IC50 [7]: 7.8 µM
25 | CCN1C(=O)C(=C2Nc3ccc(Br)cc3C2=O)c2cccnc21 [Compound 103] |  |  | 5.00 | 32.2 µM | 
26 | CCN1C(=O)C(=C2Nc3ccc(Cl)cc3C2=O)c2cccnc21 [Compound 104] |  |  | 5.07 | 45 µM | 
27 | CCCCN1C(=O)C(=C2Nc3ccc(Br)cc3C2=O)c2cccnc21 [Compound 107] |  |  | 4.85 | 26 µM | 
28 | CCCCN1C(=O)C(=C2Nc3ccc(Cl)cc3C2=O)c2cccnc21 [Compound 108] |  |  | 4.96 | 42 µM | 
29 | CCN1C(=O)C(=C2Nc3ccc(Cl)cc3C2=NO)c2cccnc21 [Compound 120] |  |  | 5.27 | 61 µM | 
30 | CC(C)N1C(=O)C(=C2Nc3ccc(Cl)cc3C2=NO)c2cccnc21 [Compound 122] |  |  | 5.10 | 25 µM | 
31 | CCCCN1C(=O)C(=C2Nc3ccc(Br)cc3C2=NO)c2cccnc21 [Compound 123] |  |  | 5.43 | 5 µM | 
32 | CC(C)N1C(=O)C(=C2Nc3ccccc3C2=NO)c2cccnc21 [Compound 130] |  |  | 5.15 | 17 µM | 
33 | CCCCN1C(=O)C(=C2Nc3ccccc3C2=NO)c2cccnc21 [Compound 131, 1-butyl-7-azaindirubin-3′-oxime] |  |  | 4.80 | 80 µM | 
34 | CCN1C(=O)C(=C2C(=O)Nc3ccc(Cl)cc32)c2cccnc21 [Compound 161] |  |  | 4.85 | 45 µM | 
35 | CCN1C(=O)C(=C2C(=O)Nc3ccc(F)cc32)c2cccnc21 [Compound 162] |  |  | 4.76 | 89 µM | 
36 | CC(C)N1C(=O)C(=C2C(=O)Nc3ccc(Br)cc32)c2cccnc21 [Compound 165] |  |  | 5.08 | 28 µM | 
37 | CC(C)N1C(=O)C(=C2C(=O)Nc3ccc(Cl)cc32)c2cccnc21 [Compound 166] |  |  | 5.00 | 31.5 µM | 
38 | CCCCN1C(=O)C(=C2C(=O)Nc3ccccc32)c2cccnc21 [Compound 169] |  |  | 4.85 | 47 µM | 
39 | CCCCN1C(=O)C(=C2C(=O)Nc3ccc(Cl)cc32)c2cccnc21 [Compound 171] |  |  | 5.05 | 46 µM | 
40 | CCCCN1C(=O)C(=C2C(=O)Nc3ccc(F)cc32)c2cccnc21 [Compound 173] |  |  | < 4.00 | > 100 µM | 
41 | O=C1Nc2ccc(Br)cc2C1=C1C(=O)N(Cc2ccccc2)c2ncccc21 [Compound 176] |  |  |  |  | IC50 [2]: 13.2 µM; IC50 [3]: 8.3 µM; IC50 [4]: 7.4 µM; IC50 [5]: 13.7 µM; IC50 [6]: 20.6 µM; IC50 [7]: 4.1 µM
42 | CC1=C(/C=C/C(C)=C/C=C/C(C)=C/C(=O)O)C(C)(C)CCC1 [all-trans retinoic acid, reference compound] |  |  |  |  | pIC50 [1, 8]: < 4.30; pIC50 [1, 9]: < 4.30
